# Experimental data as given in ChEMBL document CHEMBL1201862, “PubChem BioAssay data set” (2004).
# The source made the active and inactive calls.
# Legend:
# Cytochrome P450 3A4 = Cytochrome P450 3A4 (Homo sapiens, UniProt P08684); conditions: Potency;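 note: confirmatory qHTS run detecting inhibitors and substrates of CYP3A4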
# [1] = target: T1, Short transient receptor potential channel 4 (Mus musculus, UniProt Q9QUQ5); assay: calcium entry via TRPC4 opening agents – cell-based, HEK293 TRPC4/mu-opioid, Fluo-4 calcium, dose response (AID 434937); type: functional
# T1 sequence (Q9QUQ5 whole entry): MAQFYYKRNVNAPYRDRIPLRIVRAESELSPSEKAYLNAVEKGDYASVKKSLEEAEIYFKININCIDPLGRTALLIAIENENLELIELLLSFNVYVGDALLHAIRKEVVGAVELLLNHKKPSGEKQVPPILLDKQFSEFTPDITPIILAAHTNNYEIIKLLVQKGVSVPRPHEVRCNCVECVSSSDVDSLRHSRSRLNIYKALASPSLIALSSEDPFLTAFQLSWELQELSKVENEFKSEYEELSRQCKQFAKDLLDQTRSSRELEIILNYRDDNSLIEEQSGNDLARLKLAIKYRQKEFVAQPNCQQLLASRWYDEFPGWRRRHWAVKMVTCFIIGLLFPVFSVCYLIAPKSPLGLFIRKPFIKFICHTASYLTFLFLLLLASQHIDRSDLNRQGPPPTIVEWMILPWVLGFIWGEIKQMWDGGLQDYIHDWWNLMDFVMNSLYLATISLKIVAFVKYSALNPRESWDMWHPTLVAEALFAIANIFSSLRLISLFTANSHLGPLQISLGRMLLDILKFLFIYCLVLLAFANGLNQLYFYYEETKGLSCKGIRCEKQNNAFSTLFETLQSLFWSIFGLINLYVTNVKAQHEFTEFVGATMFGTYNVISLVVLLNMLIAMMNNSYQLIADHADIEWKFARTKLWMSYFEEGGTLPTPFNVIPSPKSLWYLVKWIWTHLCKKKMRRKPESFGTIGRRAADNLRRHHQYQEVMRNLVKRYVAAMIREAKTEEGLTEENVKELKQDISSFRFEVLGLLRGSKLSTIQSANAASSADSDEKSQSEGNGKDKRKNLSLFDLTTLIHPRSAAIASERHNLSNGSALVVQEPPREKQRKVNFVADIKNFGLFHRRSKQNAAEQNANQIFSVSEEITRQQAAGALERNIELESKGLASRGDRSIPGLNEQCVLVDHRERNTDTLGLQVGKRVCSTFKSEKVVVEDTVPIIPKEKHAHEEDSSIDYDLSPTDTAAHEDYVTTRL
# [2] = target: T2, Acyl-homoserine lactone acylase PvdQ (Pseudomonas aeruginosa (strain LESB58), UniProt Q9I194); assay: PvdQ acylase enzyme activity blockers – biochemical, fluorescence, plate reader and imaging, cherry-picks, dose response (AID 493231)
# T2 sequence (Q9I194 whole entry): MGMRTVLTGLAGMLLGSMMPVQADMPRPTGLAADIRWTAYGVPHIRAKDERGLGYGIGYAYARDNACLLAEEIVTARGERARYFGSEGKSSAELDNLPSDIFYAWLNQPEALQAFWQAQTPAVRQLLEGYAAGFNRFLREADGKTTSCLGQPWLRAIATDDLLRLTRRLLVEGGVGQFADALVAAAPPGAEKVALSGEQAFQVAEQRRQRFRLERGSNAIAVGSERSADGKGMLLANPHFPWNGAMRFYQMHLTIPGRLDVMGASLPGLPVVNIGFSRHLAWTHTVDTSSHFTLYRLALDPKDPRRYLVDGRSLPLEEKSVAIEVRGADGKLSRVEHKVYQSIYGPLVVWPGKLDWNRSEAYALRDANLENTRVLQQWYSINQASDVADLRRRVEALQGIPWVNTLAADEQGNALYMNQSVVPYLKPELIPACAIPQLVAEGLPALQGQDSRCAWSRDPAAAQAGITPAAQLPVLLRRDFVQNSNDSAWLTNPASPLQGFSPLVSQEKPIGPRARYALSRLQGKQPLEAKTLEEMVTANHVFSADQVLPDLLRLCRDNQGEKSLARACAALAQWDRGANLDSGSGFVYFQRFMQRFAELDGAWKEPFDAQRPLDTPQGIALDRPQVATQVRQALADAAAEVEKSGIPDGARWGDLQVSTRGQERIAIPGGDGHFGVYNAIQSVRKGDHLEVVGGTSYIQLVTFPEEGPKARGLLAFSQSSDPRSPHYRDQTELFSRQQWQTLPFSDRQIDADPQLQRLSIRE
# BJ [3] = assay: BJ-TERT fibroblast viability loss – cell-based, RAS-independent, luminescence, dose response (AID 1933); type: functional, Homo sapiens; conditions: Homo sapiens, BJ
# BJ [4] = assay: cells; type: functional, cell-based, Homo sapiens; conditions: Homo sapiens, BJ
# BJ [5] = assay: BJ-TERT-LT-ST fibroblast viability loss – cell-based, RAS-independent, luminescence, dose response (AID 1935); type: functional, Homo sapiens; conditions: Homo sapiens, BJ;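 note: BJ fibroblasts immortalized with TERT plus LT and ST oncogenes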
# [6] = DRD fibroblast viability loss – cell-based, non-viral oncogenic, luminescence, dose response (AID 1934); type: functional; conditions: Homo sapiens
# [7] = HEK-293T cell viability reduction – luminescence, B-cell screen hits, cytotoxicity control for BCR NF-kB inhibitor project, dose response (AID 489021); type: functional, cell-based;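 note: HEK-293T cells carrying an NF-kB luciferase reporter; cells exposed to compound for about 14 hours before viability readout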
# Cytochrome P450 2C9 = Cytochrome P450 2C9 (Homo sapiens, UniProt P11712)
# Leucine aminopeptidase = target: T3, Leucine aminopeptidase (Plasmodium falciparum 3D7, UniProt Q8IL11); assay: P. falciparum M17LAP inhibitors, primary screen, biochemical, fluorogenic H-Leu-NHMec substrate, 1536-well (AID 1619); type: functional
# T3 sequence (Q8IL11 whole entry): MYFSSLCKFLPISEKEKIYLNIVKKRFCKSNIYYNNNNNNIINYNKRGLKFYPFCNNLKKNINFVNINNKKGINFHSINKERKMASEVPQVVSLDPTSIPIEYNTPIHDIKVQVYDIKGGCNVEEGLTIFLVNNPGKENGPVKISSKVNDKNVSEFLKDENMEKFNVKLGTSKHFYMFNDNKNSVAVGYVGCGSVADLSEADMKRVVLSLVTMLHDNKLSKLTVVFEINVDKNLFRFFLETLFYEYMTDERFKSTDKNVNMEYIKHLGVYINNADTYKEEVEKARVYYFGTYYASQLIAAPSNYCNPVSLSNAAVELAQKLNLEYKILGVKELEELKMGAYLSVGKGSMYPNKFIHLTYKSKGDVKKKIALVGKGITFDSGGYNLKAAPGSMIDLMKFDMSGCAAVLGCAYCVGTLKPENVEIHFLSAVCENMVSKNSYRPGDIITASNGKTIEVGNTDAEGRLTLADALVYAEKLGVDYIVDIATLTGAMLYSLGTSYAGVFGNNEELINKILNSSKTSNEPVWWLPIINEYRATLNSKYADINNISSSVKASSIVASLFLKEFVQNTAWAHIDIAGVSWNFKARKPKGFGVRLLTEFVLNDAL
# [8] = target: Voltage-dependent T-type calcium channel subunit alpha-1H (Homo sapiens, UniProt O95180); type: functional;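 note: channel activity triggered by adding a high calcium stimulation buffer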
# [9] = target: DNA dC->dU-editing enzyme APOBEC-3A (Homo sapiens, UniProt P31941); assay: Dose Response confirmation of small molecule APOBEC3A DNA Deaminase Inhibitors via a fluorescence-based single-stranded DNA deaminase assay. [Related pubchem assays (depositor defined):AID493011, AID493024]; type: functional
# [10] = target: DNA dC->dU-editing enzyme APOBEC-3G (Homo sapiens, UniProt Q9HC16); type: functional;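 note: Dose-response counterscreen measuring inhibition of APOBEC3G DNA deaminase activity, run while confirming APOBEC3A inhibitors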
# [11] = luciferase reporter signal suppression in cells – H4 neuroglioma cells, luminescence, dose response (AID 1990); type: functional, cell-based
# [12] = Luminescence Cell-Based Dose Response HTS to Identify Inhibitors of 5'UTR Stem-Loop Driven Prion Protein mRNA Translation in H4 Neuroglioblastoma Cells. [Related pubchem assays: 1827 (Project Summary), 1813 (Primary HTS)]; type: functional
# [13] = alpha-synuclein stem-loop luciferase translation blockers – H4 neuroglioma cells, luminescence, confirmation (AID 1988); type: functional, cell-based
# HEK293 = assay: EBV LMP1 TES2 canonical NF-kB signalling blockers – cell-based, HEK293, luciferase, cherry-pick, dose response (AID 588343); type: functional; conditions: Homo sapiens
# [14] = system: Streptococcus sp. 'group A'; assay: Streptococcus pyogenes SK(-)GAS viability under kanamycin – luminescence, BacTiterGlo, confirmation, counter-screen for streptokinase expression inhibitor project, dose response (AID 1900); type: functional, organism-based
# Streptokinase A = target: T4, Streptokinase A (Streptococcus pyogenes serotype M1, UniProt P10520); assay: viability-normalized secreted streptokinase activity reduction – plasminogen activation absorbance, OD405, dose response (AID 1914); type: functional, Streptococcus pyogenes M1 GAS;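 note: secreted streptokinase activity via plasminogen activation per viability signal from cell pellet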
# T4 sequence (P10520 whole entry): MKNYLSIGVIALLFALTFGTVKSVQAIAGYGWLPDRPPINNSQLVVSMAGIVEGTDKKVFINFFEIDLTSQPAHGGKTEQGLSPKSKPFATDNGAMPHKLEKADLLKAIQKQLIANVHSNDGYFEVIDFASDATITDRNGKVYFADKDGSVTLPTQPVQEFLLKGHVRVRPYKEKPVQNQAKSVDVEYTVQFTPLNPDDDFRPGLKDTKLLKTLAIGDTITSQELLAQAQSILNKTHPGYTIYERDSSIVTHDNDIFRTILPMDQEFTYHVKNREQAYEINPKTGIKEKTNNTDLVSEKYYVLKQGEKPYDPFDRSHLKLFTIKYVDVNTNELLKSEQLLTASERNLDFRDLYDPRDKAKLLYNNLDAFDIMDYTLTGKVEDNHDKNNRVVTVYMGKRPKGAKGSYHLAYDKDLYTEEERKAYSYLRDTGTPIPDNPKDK
# Streptococcus = assay: GAS UMAA2166 growth inhibition – luminescence, BacTiterGlo, counter-screen for streptokinase expression inhibitor project, dose response (AID 1915); type: functional, organism-based;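 note: potency for reduction of bacterial viability or growth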
# [15] = Luminescence Cell-Based Dose Retest to Confirm Inhibitors of Cancer Stem Cells. [Related pubchem assays (depositor defined):AID2717, AID2721]; type: functional; conditions: Homo sapiens
# Cytochrome P450 2C19 = Cytochrome P450 2C19 (Homo sapiens, UniProt P33261); assay: Cytochrome panel assay with activity outcomes. Panel member name: p450-cyp2c19 Compounds with AC50 equal or less than 10 uM are considered active; type: functional; conditions: read-out: AC50
# [16] = NIH-3T3 fibroblast cytotoxicity, dose response, cytotoxicity control, cell-based, fluorescence, Alamar Blue, secondary assay (AID 2327); type: functional;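 note: NIH-3T3 mouse fibroblasts cultured with fluconazole at 8 µg/mL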
# [17] = fluconazole-exposed Candida albicans growth modulators – fluorescence, retest, confirmation (AID 2467); type: functional, cell-based
# Cytochrome P450 3A4, sequence (P08684 whole entry): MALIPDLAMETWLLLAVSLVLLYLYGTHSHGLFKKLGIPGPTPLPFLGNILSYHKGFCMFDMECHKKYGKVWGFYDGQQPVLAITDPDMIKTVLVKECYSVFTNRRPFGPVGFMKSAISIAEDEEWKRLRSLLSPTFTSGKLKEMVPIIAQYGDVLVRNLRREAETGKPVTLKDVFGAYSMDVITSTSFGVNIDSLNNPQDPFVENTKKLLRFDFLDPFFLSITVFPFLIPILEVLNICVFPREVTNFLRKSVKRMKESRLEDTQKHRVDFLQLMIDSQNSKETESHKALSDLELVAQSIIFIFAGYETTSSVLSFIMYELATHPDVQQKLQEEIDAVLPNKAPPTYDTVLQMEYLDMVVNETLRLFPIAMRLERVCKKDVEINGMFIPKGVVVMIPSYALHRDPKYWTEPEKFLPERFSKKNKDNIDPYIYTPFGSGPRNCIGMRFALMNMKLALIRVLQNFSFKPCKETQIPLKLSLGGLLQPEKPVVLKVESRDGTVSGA
# DNA dC->dU-editing enzyme APOBEC-3G, sequence (Q9HC16 whole entry): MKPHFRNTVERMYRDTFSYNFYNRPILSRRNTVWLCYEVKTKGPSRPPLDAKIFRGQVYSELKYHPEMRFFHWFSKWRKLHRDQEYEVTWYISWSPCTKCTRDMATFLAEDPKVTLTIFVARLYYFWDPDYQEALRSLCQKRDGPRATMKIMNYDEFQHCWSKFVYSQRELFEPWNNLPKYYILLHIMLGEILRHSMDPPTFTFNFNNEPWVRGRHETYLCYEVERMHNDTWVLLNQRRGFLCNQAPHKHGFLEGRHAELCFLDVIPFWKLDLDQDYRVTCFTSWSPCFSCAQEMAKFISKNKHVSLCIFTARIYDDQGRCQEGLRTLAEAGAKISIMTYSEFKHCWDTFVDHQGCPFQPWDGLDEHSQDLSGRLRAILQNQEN
# Voltage-dependent T-type calcium channel subunit alpha-1H, sequence (O95180 whole entry): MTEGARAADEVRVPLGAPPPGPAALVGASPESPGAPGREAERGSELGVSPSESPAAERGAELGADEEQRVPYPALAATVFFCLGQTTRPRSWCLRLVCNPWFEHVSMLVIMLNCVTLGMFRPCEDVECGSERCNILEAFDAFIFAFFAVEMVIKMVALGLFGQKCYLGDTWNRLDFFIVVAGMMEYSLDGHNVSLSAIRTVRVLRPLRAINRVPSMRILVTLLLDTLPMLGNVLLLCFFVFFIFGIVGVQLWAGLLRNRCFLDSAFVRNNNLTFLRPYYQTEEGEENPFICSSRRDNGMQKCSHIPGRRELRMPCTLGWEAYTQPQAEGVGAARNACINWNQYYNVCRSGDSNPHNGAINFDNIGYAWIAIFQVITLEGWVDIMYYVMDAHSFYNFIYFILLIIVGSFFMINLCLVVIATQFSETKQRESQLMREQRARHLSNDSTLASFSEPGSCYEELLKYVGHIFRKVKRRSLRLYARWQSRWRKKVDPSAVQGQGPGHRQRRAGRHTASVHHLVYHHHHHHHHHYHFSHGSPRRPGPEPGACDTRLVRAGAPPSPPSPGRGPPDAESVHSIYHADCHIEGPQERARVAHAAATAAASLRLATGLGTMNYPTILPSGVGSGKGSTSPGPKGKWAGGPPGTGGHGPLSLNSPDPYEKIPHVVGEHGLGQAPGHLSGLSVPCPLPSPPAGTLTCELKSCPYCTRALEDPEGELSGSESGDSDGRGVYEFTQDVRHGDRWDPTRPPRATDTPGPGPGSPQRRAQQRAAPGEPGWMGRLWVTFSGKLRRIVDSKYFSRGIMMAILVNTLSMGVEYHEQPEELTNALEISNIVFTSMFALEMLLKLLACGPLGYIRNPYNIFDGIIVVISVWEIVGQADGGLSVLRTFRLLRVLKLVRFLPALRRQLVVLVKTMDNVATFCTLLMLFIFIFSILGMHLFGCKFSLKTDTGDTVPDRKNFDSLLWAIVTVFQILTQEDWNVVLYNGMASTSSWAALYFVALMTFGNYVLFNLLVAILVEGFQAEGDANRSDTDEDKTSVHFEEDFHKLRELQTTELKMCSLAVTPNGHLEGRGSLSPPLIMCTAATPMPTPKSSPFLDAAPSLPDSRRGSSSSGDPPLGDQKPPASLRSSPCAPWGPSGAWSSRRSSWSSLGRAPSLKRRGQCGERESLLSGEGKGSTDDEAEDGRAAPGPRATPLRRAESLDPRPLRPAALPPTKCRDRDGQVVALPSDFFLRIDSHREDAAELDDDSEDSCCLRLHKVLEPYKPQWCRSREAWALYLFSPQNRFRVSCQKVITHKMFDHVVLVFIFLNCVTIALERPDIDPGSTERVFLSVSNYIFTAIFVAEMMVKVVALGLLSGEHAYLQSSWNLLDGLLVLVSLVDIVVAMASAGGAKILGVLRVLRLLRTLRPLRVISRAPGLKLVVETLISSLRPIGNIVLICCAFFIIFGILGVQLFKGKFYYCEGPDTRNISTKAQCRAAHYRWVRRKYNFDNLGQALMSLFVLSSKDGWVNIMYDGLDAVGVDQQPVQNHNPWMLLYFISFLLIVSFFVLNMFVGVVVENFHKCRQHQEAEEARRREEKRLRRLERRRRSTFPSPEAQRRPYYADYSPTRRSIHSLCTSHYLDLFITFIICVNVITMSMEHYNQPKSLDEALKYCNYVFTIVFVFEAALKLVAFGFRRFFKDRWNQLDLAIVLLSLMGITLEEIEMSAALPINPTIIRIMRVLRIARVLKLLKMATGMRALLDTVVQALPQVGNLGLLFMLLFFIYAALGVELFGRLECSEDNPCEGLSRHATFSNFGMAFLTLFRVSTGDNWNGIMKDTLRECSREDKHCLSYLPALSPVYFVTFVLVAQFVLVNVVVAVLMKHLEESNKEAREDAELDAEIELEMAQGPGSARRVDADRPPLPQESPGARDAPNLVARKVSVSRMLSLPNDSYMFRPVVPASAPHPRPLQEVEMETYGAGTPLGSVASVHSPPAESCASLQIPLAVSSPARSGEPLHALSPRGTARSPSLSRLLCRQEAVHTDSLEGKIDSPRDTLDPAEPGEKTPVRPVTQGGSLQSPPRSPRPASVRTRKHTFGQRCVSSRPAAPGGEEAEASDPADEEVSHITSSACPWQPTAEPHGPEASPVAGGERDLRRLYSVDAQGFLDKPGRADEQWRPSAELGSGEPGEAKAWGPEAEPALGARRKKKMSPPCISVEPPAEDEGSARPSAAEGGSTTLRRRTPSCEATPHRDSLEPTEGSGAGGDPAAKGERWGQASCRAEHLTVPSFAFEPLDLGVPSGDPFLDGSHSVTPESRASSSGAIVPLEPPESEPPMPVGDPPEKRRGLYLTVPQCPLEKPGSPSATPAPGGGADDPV
# Cytochrome P450 2C9, sequence (P11712 whole entry): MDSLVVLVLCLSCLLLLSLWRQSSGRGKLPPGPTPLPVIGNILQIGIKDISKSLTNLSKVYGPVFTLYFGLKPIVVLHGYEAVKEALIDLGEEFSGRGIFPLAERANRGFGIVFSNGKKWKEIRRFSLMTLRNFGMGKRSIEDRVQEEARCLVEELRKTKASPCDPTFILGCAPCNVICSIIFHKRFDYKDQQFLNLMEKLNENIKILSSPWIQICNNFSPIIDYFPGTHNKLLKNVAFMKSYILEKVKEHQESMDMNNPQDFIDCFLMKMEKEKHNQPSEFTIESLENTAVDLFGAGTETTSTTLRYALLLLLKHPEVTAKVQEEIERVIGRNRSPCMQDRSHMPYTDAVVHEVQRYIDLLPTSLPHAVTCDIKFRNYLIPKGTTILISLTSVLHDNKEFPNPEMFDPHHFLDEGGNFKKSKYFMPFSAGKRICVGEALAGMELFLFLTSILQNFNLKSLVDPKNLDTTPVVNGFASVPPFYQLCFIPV
# DNA dC->dU-editing enzyme APOBEC-3A, sequence (P31941 whole entry): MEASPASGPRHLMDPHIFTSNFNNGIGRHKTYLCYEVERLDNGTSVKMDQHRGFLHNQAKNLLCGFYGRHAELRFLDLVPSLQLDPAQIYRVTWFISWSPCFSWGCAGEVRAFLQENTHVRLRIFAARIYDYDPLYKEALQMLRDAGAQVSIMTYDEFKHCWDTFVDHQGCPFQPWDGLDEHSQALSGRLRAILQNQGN
# Cytochrome P450 2C19, sequence (P33261 whole entry): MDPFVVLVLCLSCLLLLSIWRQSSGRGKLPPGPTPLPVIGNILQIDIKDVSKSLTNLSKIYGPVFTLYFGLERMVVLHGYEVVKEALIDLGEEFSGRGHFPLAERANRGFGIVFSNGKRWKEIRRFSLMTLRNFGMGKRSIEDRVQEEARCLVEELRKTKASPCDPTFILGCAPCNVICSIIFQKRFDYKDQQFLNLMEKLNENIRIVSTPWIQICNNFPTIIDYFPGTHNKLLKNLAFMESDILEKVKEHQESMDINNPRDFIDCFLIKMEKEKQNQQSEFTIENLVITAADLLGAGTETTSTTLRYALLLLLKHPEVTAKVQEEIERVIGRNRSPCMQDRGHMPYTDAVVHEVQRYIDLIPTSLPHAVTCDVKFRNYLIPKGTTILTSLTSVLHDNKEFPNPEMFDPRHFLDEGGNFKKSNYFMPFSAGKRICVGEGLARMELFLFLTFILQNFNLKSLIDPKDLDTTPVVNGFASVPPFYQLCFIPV
smiles,measurement,setting,value
Nc1nc[nH]n1 [AMITROLE],AC50,Cytochrome P450 3A4,15.8 µM (inconclusive)
CCn1c(N)[n+](CC(=O)Nc2ccc(SC(F)F)cc2)c2ccccc21,EC50,[1],4.22 µM (active)
O=S1(=O)CCOC[C@H](c2ccccc2)N1Cc1cccc(Cl)c1,AC50,[2],12.7 µM (active)
Cc1nc(N2CCOCC2)c2nc(-c3ccccc3)n(CCN3CCCC3)c2n1,AC50,Cytochrome P450 3A4,20 µM (inconclusive)
O=C1C=C(c2cc(F)ccc2F)C[C@@H](c2ccc(F)cc2)C1,AC50,[2],9.05 µM (active)
CCOCCCNc1nc2c(C)cccn2c(=O)c1/C=C1\SC(=S)N(C(C)CC)C1=O (stereo not drawn),EC50,BJ [3],> 150 µM (not active)
same,EC50,BJ [4],> 150 µM (not active)
same,EC50,BJ [5],> 150 µM (inconclusive)
same,EC50,[6],38.5 µM (active)
same,IC50,[7],> 80 µM (inactive)
Cc1ccccc1-n1c(SCc2c(C)noc2C)nnc1-c1c[nH]c2ccccc12,IC50,[7],> 80 µM (inactive)
O=C1Nc2ccc(F)cc2C12SCCS2,AC50,Cytochrome P450 2C9,inconclusive
CCOC(=O)C1(CCOc2ccccc2)CCN(Cc2ccc(NC(C)=O)cc2)CC1,EC50,[1],0.211 µM (active)
COc1ccc(NC(=O)CN2c3cccc4cccc(c34)S2(=O)=O)cc1,IC50,Leucine aminopeptidase,3.84 µM (active)
same,AC50,Cytochrome P450 2C9,inconclusive
O=C(CN1CCN(c2ccccn2)CC1)N(c1ccccc1)c1ccc2ccccc2c1,EC50,[8],6.52 µM (active)
"COc1cc(O)c2c(=O)cc(C)oc2c1CC=C(C)C [HETEROPEUCENIN, METHYL ETHER]",AC50,Cytochrome P450 3A4,39.8 µM (inconclusive)
CC(C)CC1CCCCC1OC(=O)C[N+]1(C)CCCCC1 (stereo not drawn),IC50,[9],2.2 µM (active)
same,IC50,[10],2.29 µM (active)
O=C(CCCN1C(=O)/C(=C/c2ccccc2Cl)SC1=S)NNC(=O)c1ccccc1Cl,EC50,[11],5.95 µM (active)
same,EC50,[12],10.5 µM (active)
same,EC50,[13],7.8 µM (active)
same,IC50,[7],> 80 µM (inactive)
same,AC50,HEK293,9.18 µM (active)
CCN(CC)CCCCn1c(-c2ccccc2)nc2c(NC3CCCCC3)nc(C)nc21,AC50,Cytochrome P450 3A4,25.1 µM (inconclusive)
O/N=C(\c1ccc(Cl)cc1Cl)c1ncc(C(F)(F)F)cc1Cl,EC50,[14],10.6 µM (active)
same,EC50,Streptokinase A,35.2 µM (active)
same,EC50,Streptococcus,> 150 µM (not active)
same,EC50,[8],2.11 µM (active)
same,AC50,[15],8.81 µM (active)
COc1ccc(NC(=O)c2cc(C(C)C)on2)cc1OC,AC50,Cytochrome P450 2C19,20 µM (inconclusive)
same,AC50,Cytochrome P450 2C9,inconclusive
Cc1ccccc1NC(=O)c1ccc(CN2CCc3ccccc3C2)cc1,EC50,[8],2.28 µM (active)
C[n+]1ccccc1/C=C/c1ccc2ncccc2c1,IC50,[9],0.892 µM (active)
same,IC50,[10],1.92 µM (active)
CCCCC(=O)NNC(=S)NC(=O)c1ccc(C)cc1,EC50,[16],> 150 µM (inconclusive)
same,EC50,[17],1.43 µM (active)
same,EC50,[1],2.99 µM (active)
Brc1ccc(-c2nnc(-c3ccco3)o2)cc1,AC50,[2],46.2 µM (active)
CC1=CC(C)C(C[N+]2(C)CCCCC2)C(C)C1 (stereo not drawn),IC50,[9],6.16 µM (active)
same,IC50,[10],6.31 µM (active)
Cc1nn(Cc2ccccc2)c(C)c1NC(=O)c1cc(-c2ccco2)on1,EC50,[8],9.33 µM (active)
Cc1cc(-c2ccc(C)c(S(=O)(=O)NCCCN(Cc3ccccc3)C(C)C)c2)on1,EC50,[1],1.33 µM (active)
